Data taken from patent publication US20250152583A1, “AMILORIDE FOR USE IN THE TOPICAL TREATMENT OF SOMATOSENSORY IMPAIRMENTS” (ASSISTANCE PUBLIQUE - HOPITAUX DE PARIS, priority 2022, published 2025).

Legend:
Assay type in all cases: in vivo, human
[1] = test system: patient with peripheral sensory neuropathy of feet and hands with hypoesthesia and proprioceptive disorders; experiment: Case report: amiloride cream on hypoesthetic areas, neuropathy induced by Ado-trastuzumab emtansine (T-DM1); details: cream of amiloride 5%, applied locally to hypoesthetic areas twice a day
Text: A patient received Ado-trastuzumab emtansine (T-DM1), the first HER2-targeted antibody-drug conjugate to get the approval of the Food and Drug Administration (FDA), for the treatment of their metastatic HER2-positive breast cancer.
For more than 2 years, they had repeated falls due to loss of feeling in their feet, cuts on their hands, unnoticed burns, “splinters in the skin following their gardening activities” with infection in the aftermath because they had not realized it.
They complained of often dropping objects held in their hands and of no longer being able to sew due to the impossibility of holding a fine needle.
They were treated with a cream of amiloride 5% applied locally to the hypoesthetic areas twice a day.

[2] = test system: patient with hypoesthesia and proprioceptive disorders; experiment: Case report: amiloride cream on hypoesthetic areas, hypoesthesia and proprioceptive disorders after bortezomib; details: cream of amiloride 10%, twice a day, after 1 month of use
Description: A patient suffered from hypoesthesia and proprioceptive disorders with difficulty gripping the foot on the ground, impression of walking on cotton and complained of the impression of having a permanently rolled sock under the feet in addition to a sensation of having edematous toes since they received a treatment with bortezomib in 2016 for treating their myeloma. They were treated with a cream of amiloride 10% applied locally to the hypoesthetic areas twice a day.

[3] = test system: patient with hypoesthesia with lost sensations in feet and fingertips; experiment: Case report: amiloride cream, hypoesthesia after oxaliplatine
Description: A patient suffering from colon cancer was treated for 4 months with oxaliplatine in December 2019. They developed hypoesthesia with lost sensations in feet and in the fingertips of both hands and complained of having the impression of a permanently “rolled sock” under the feet. They were treated with a cream of amiloride 10% applied twice a day during one month and they noticed an improvement in the feeling of the right foot “rolled sock” (4/10 vs 8/10 before this treatment), a little less on the left foot (6/10 vs 8/10).

[4] = test system: patients with somatosensory impairments; experiment: Summary statement: patients treated with a topical composition of amiloride

**Q.** What does the source list for `NC(N)=NC(=O)c1nc(Cl)c(N)nc1N` [amiloride, 3,5-diamino-6-chloro-N-(diaminomethylidene) pyrazine-2-carboxamide]?
**A.** sensation of hands and feet [1]: regained the sensation of their hands and feet; impression of having a permanently rolled sock under the feet [2]: disappeared; impression of walking on cotton [2]: disappeared; sensation of edema of the toes [2]: has disappeared; feeling of hot and cold on the soles of the feet ([2]; patient): feels better hot and cold on the soles of their feet; sensation "rolled sock" ([3]; amiloride concentration in the cream increased to 15%): further decrease the sensation “rolled sock” even on the left foot; sensitivity in the fingertips of both hands ([3]; cream of amiloride 10%, twice a day during one month): regained the sensitivity in the fingertips of both hands; feeling of "rolled sock", left foot ([3]; cream of amiloride 10%, twice a day during one month, 8/10 before treatment): 6/10; feeling of "rolled sock", right foot ([3]; cream of amiloride 10%, twice a day during one month, 8/10 before treatment, patient): 4/10; sensations in insensitive body areas, proprioception and mechanical allodynia [4]: able to recover sensations in insensitive body areas and a correct proprioception and noted the disappearance of mechanical allodynia
